Legend:
[1] = Metabolic stability, rabbit liver S9; assay type: in vitro ADME; details: pooled liver S9 fraction, Table S4, read-out: t1/2 rabbit liver S9
Experimental: subtraction and plotted using GraphPad Prism 8.4.2 (GraphPad Software, San Diego, CA, […]
USA). Solubility (S) was determined based on the First X value of AUC function using a […]
For the evaluation of combined phase I and phase II metabolic stability, the compound (1 μM) was incubated with 1 mg/mL pooled liver S9 fraction from the respective species (Xenotech), […]
2 mM NADPH, 1 mM UDPGA, 10 mM MgCl2, 5 mM GSH and 0.1 mM PAPS at 37 °C for […]
0, 5, 15, 30 or 60 min. The metabolic stability of Testosterone (1 μM) and verapamil (1 μM) […]
were determined in parallel to confirm the enzymatic activity of the S9 fraction. The […]
incubation was stopped by precipitation of S9 enzymes with 2 volumes of cold acetonitrile […]
containing internal standard (750 nM Diphenhydramine). Samples were stored on ice for 10 […]
min and precipitated protein was removed by centrifugation (10 min, 4 °C, 17,000 g).
Concentration of the remaining test compound at the different time points was analyzed by […]
LC-MS/MS (TSQ Quantum Access MAX, Thermo Fisher, Dreieich, Germany) and used to […]
determine half-life (t1/2). Stability of compound 4 in further S9 fractions are summarized in […]
Table S4. Metabolic stability studies in various S9 fractions. […]
guinea pig liver S9 92.5 ± 5.4
5.6. Permeability studies
Permeability of compound 4 and 17 was assessed in vitro with Calu-3 HTB-55 cell line (ATCC). […]

P. aeruginosa NH57388A = assay: Murine mucoid lung infection model, target engagement; assay type: in vivo, Pseudomonas aeruginosa
Experimental: We, therefore, decided to make use of a murine sub‐chronic infection model with a mucoid infection phenotype specifically enabling to assess the on‐target activity of QSIs. […] Animals were immediately treated with QSI 4 co‐administered using methyl cellulose (dose = 5 mg kg^−1) or vehicle (control), followed by further treatments at 24 and 48 h post‐infection. The lungs were harvested at 72 h time point, homogenized and extracted using ethyl acetate. As a readout for target engagement, we quantified the signal molecule levels of HHQ, PQS, and HQNO as proximal biomarkers for the activity of the bacterial target. […] In addition, we measured bacterial burden in form of CFU count as a treatment endpoint (Section S6.3, Supporting Information). […] Moreover, CFU was reduced by four‐fold upon treatment with QSI 4 (see Table S11 in the Supporting Information). […] However, considering the impact of the host immune system on bacterial clearance and the action of some PqsR‐controlled virulence factors toward immune‐system evasion (biofilm formation, pyocyanin production, elastase LasB expression), an indirect effect on the bacterial load in the lungs is plausible. However, it has to be stated that this effect is only minor compared to typical 2‐ to 4‐log unit reductions achieved by early antibiotic treatment.^[ ^31 ^]
6.3. Design of in vivo Target Engagement Study
General. Mouse experiments were approved by the Landesamt für Soziales, Gesundheit und Verbraucherschutz of the State of Saarland in accordance with the national guidelines for animal treatment on August, 17th, 2017 (22/2017). The IVC unit was located within a biosafety level 2 laboratory and mice were allowed to acclimatize to their environment for at least seven days prior to the experiment. Throughout the experiment, the mice had access to water and food ad libitum.
Background studies were performed in order to generate typical mean and standard deviation values for biomarkers of the control group. Sample size was calculated using BiAS.
(Software Version 11.08) from these values with alpha = 0.05 and P = 0.8 for biomarker reduction of 80% resulting in a sample size of ten mice or higher for a two-sample t-test.
Primary study. Ten-week old female C57BL/6N mice were housed in an individually ventilated-cage unit with ten mice per cage and twenty mice in total. One group (from one cage) was treated with compound 4, while the other group received a sham treatment with vehicle. Mice were not randomized, and no blinding was applied.
For the infection, each mouse was anesthetized intraperitoneally with 2.025 mg of ketaminhydrochloride (Ursotamin, Serumwerk Bernburg, Germany) and 0.12 mg of xylazinhydrochloride (Xylazin, WDF, Serumwerk Bernburg). Lidocainhydrochloride (Xylocain; Aspen Pharma, Ireland) was used for local anesthesia of the epiglottis before endotracheal intubation with a flexible cannula and intra-tracheal application of the inoculum […]
Application of inoculum (start of infection, 0 h) using 20 µL viable P. aeruginosa NH57388A culture supplemented with sodium alginate (22 mg/mL, Sigma). These were mixed with 20 µL of either compound 4 (5 mg/kg BW suspended in 0.1% methylcellulose) or vehicle (0.1% methylcellulose) to conduct the first treatment simultaneously to infection via intra-tracheal application assisted by endotracheal intubation using a flexible cannula. Bacterial load was determined to be 5∙10^7 CFU per mouse by plating serial dilutions on LB-agar plates.
Subsequent treatments were performed at 24 and 48 h post infection with 20 µL of compound 4 (5 mg/kg BW suspended in 0.5% methylcellulose, 0.2 vol-% Tween-80) or vehicle (0.5% methylcellulose, 0.2 vol-% Tween 80) were administered intra-tracheally following the same procedure as the infection. 72 h post infection mice were euthanized, lungs were removed aseptically and homogenized in 500 µL sterile phosphate buffered saline over the course of […]
72 h. Again, bacterial load was determined by plating serial dilutions on LB-agar plates. The […]

[2] = treated group, n = 7, 72 h, below LLOQ

**Q.** What does the source list for `FC(F)(F)c1cc(NCc2cn(-c3ccc(Oc4ccccc4)cc3)nn2)ccn1` [Compound 4]?
**A.** half-life at 1 μM [1]: 20 ± 10 min; reduction of CFU / bacterial load upon treatment (P. aeruginosa NH57388A; mice, 5 mg kg^−1, 72 h): four‐fold; auto‐inducer levels (HHQ, PQS, HQNO) in infected lungs (P. aeruginosa NH57388A; mice, 5 mg kg^−1, 72 h, p < 0.05): reduced significantly; CFU/mouse Mean (P. aeruginosa NH57388A; treated group, n = 7, 72 h): 173600 CFU/mouse; CFU/mouse Median (P. aeruginosa NH57388A; treated group, n = 7, 72 h): 147500 CFU/mouse; HHQ Mean (P. aeruginosa NH57388A; treated group, n = 7, 72 h): 1.7 pmol; HHQ Median (P. aeruginosa NH57388A; treated group, n = 7, 72 h): 0.9 pmol; HQNO Mean (P. aeruginosa NH57388A; treated group, n = 7, 72 h): 5.2 pmol; HQNO Median (P. aeruginosa NH57388A; treated group, n = 7, 72 h): 2.3 pmol; PQS Mean (P. aeruginosa NH57388A; [2]): 0.3 pmol; PQS Median (P. aeruginosa NH57388A; [2]): 0.2 pmol; Reduction through treatment, CFU/mouse (P. aeruginosa NH57388A; treated vs untreated means): 77.3%; Reduction through treatment, HHQ (P. aeruginosa NH57388A; treated vs untreated means): 99.3%; Reduction through treatment, HQNO (P. aeruginosa NH57388A; treated vs untreated means): 98.3%; Reduction through treatment, PQS (P. aeruginosa NH57388A; treated vs untreated means): 99.1%
